From US11440910B2, “Pesticidally active heterocyclic derivatives with sulfur containing substituents” (SYNGENTA PARTICIPATIONS AG, priority 2017, dated 2022)

Key:
Format in all cases: in vivo
[1] = test system: Plutella xylostella (Diamond back moth); test: Example B3: Plutella xylostella, artificial diet; conditions: 120 h, application rate 200 ppm, L2 larvae, 5 days after infestation, read-out: effect in at least one of the two categories (mortality or growth inhibition)
Method: Example B3: Plutella Xylostella (Diamond Back Moth)
(§1) 24-well microtiter plates with artificial diet were treated with aqueous test solutions prepared from 10′000 ppm DMSO stock solutions by pipetting. After drying, the plates were infested with L2 larvae (10 to 15 per well). The samples were assessed for mortality and growth inhibition in comparison to untreated samples 5 days after infestation.

[2] = test system: Diabrotica balteata (Corn root worm); test: Example B4: Diabrotica balteata, maize sprouts sprayed; conditions: 96 h, application rate 200 ppm, L2 larvae, 4 days after infestation, read-out: effect in at least one of the two categories (mortality or growth inhibition)
Method: Example B4: Diabrotica Balteata (Corn Root Worm)
as §1, with “Maize sprouts placed onto an agar layer in 24-well” for “24-well”, “plates” for “plates with artificial diet”, “spraying.” for “pipetting.”, “(6” for “(10”, “10” for “15”, “4” for “5”

[3] = test system: Myzus persicae (Green peach aphid); test: Example B5: Myzus persicae, sunflower leaf discs sprayed; conditions: foliar, 144 h, application rate 200 ppm, mixed ages, 6 days after infestation
Method: Example B5: Myzus Persicae (Green Peach Aphid)
Sunflower leaf discs were placed onto agar in a 24-well microtiter plate and sprayed with aqueous test solutions prepared from 10′000 ppm DMSO stock solutions. After drying, the leaf discs were infested with an aphid population of mixed ages. The samples were assessed for mortality 6 days after infestation.

[4] = test system: Myzus persicae (Green peach aphid); test: Example B6: Myzus persicae, roots of pea seedlings in test solution; conditions: 144 h, test rate 24 ppm, mixed ages, 6 days after placing seedlings into test solutions
Method: Example B6: Myzus Persicae (Green Peach Aphid)
Roots of pea seedlings infested with an aphid population of mixed ages were placed directly into aqueous test solutions prepared from 10′000 DMSO stock solutions. The samples were assessed for mortality 6 days after placing seedlings into test solutions.

[5] = test system: Bemisia tabaci (Cotton white fly); test: Example B7: Bemisia tabaci, cotton leaf discs sprayed; conditions: foliar, 144 h, application rate 200 ppm, adult white flies, 6 days after incubation
Method: Example B7: Bemisia Tabaci (Cotton White Fly)
Cotton leaf discs were placed on agar in 24-well microtiter plates and sprayed with aqueous test solutions prepared from 10′000 ppm DMSO stock solutions. After drying the leaf discs were infested with adult white flies. The samples were checked for mortality 6 days after incubation.

[6] = test system: Euschistus heros (Neotropical brown stink bug); test: Example B8: Euschistus heros, soybean leaves sprayed; conditions: 120 h, application rate 200 ppm, N2 nymphs, 5 days after infestation, read-out: effect in at least one of the two categories (mortality or growth inhibition)
Method: Example B8: Euschistus Heros (Neotropical Brown Stink Bug)
Soybean leaves on agar in 24-well microtiter plates were sprayed with aqueous test solutions prepared from 10′000 ppm DMSO stock solutions. After drying the leaves were infested with N2 nymphs. The samples were assessed for mortality and growth inhibition in comparison to untreated samples 5 days after infestation.

Euschistus heros = test: Example B13: comparison against Euschistus heros, soybean plants sprayed; conditions: 120 h, Concentration 3 ppm, N2 nymphs on 2 week old soybean plants, 5 days after treatment
Method: Activity of compound P17 according to the present invention and of compound P15 from WO2016/026848 against Euschistus heros is summarized in Table B13.
2 week old soybean plants were sprayed with diluted aqueous test solutions. Afterwards plants were infested with 10 stink bug nymphs (N2). Soybean seeds were added as additional food source to the test system. 5 days after treatment the samples were assessed for mortality.

With `CCS(=O)(=O)c1cc(C(C)(C)C#N)ccc1-c1nc2cc(C(F)(F)F)ncc2n1C` [Compound P17, 2-[3-ethylsulfonyl-4-[3-methyl-6-(trifluoromethyl)imidazo[4,5-c]pyridin-2-yl]phenyl]-2-methyl-propanenitrile] the percent effect (mortality or growth inhibition) at 200 ppm [1] was ≥ 80%, the percent effect (mortality or growth inhibition) at 200 ppm [2] was ≥ 80% and the mortality at 200 ppm [3] was ≥ 80%. The mortality at 24 ppm [4] was ≥ 80%, the mortality at 200 ppm [5] was ≥ 80% and the percent effect (mortality or growth inhibition) at 200 ppm [6] was ≥ 80%. It also gave a mortality at 3 ppm (Euschistus heros) of 95%.
